In US20150025074A1, “METHODS AND COMPOSITIONS FOR TREATING SOLID TUMORS AND OTHER MALIGNANCIES” (priority 2009, published 2015):
Read-outs that look alike come from different tables or passages of the source.

Assays:
[1] = tested on: Ptch+/−Hic+/− medulloblastoma allograft; assay: Ptch+/−Hic+/− subcutaneous medulloblastoma allograft model; format: in vivo, Harlan nu/nu mice; details: po; for effect on tumor growth / tumor volume: 80 mg/kg qd Compound 1, 10 mg/kg qd Compound A, or combination, FIG. 1
Description: Mouse medulloblastoma cells (1.0-5.0×10^6), dissociated directly from tumor fragments originally derived from spontaneously arising medulloblastomas in Ptch+/−Hic+/− mice, were inoculated subcutaneously into the right flank of Harlan nu/nu mice. Treatment was initiated approximately 7-10 days post implantation. […] Tumor volumes (mm3) and body weights (g) were recorded two or three times per week from all groups for analysis. Dose was body weight adjusted at time of dosing. Comparisons between treatment groups was performed using a non-parametric Kruskal-Wallis/Wilcoxon Rank Sum Test.
Tumors were calipered in two dimensions, and the volumes were calculated using the formula: (length×width2)/2, where length is the longer of the two measurements and width is the shorter one. Percent treatment/control (% T/C) values were calculated using the following formula: % T/C=100×ΔTf-i/ΔCf-i if ΔTf-i>0, % T/T0-100×ΔTf-i/T0 if ΔTf-i<0 (regression). A partial responder (PR) was defined as an animal whose tumor […] was less than 50% of the initial tumor volume by the end of the study. An animal with no palpable tumor by the end of study is defined as a complete responder (CR).
Ptch+/− mice develop medulloblastoma spontaneously (Romer, et al., Cancer Cell, Volume 6, Issue 3, pages 229-24, 2004). […] The heterozygous loss of Hic results in an earlier onset and increases the incidence rate of medulloblastomas (Briggs et al., Genes & Dev., 22: pages 770-785 2008). The in vivo efficacy of Compound 1 was evaluated in Ptch+/−Hic+/− mouse medulloblastoma allograft models, derived from corresponding transgenic mice and passaged in vivo, and following long-term continuous dosing. The following experiments were performed to evaluate if mTor inhibitors could be used either alone or in combination to treat resistant tumors or to overcome the development of resistance to Smo antagonists.
Next, a combination of Compound 1 and Compound A was explored in the Ptch+/−Hic+/− medulloblastoma allograft model.

[2] = tested on: medulloblastoma cells derived from resistant Ptch+/−Hic+/− medulloblastoma tumors; assay: ex-vivo medulloblastoma proliferation assay (48 h, 3H thymidine incorporation), resistant tumors; format: cell-based, mouse; details: for IC50: Mus musculus, Medulloblastoma cell
Description: (§1) The effect of mTor inhibitors (e.g., compounds such as Compound A) on the proliferation of medulloblastoma cells derived from sensitive and resistant medulloblastoma tumors was evaluated by using an “ex-vivo medulloblastoma proliferation assay. Sensitive tumors means tumors (e.g., medulloblastomas) which, due to hedgehog pathway activation, respond to treatment with a smoothened inhibitor anti-cancer regimen. Resistant tumors means formerly sensitive tumors (e.g., medulloblastomas) which, in the continuos presence of a smo inhibitor, either have regrown after shrinking due to treatment, or have reappeared after being temporarily eliminated due to treatment. Resistant tumors show a decreased sensitivity or no response to smoothened inhibition.
(§2) Using Ptch+/−Hic+/− medulloblastoma tumors freshly harvested from allografted nude mice, we have developed a short-term 48 h proliferation assay that enables us to assess the in vitro potency of Smo inhibitors. The read-out for proliferation uses incorporation of 3H thymidine. The assay reflects the in vivo sensitivity of tumor cells to Compound 1.
(§3) Table 1 summarizes the results of treating medulloblastoma cells in culture with Compound 1 (Smo inhibitor) and Compound A (mTor inhibitor), or combinations thereof. […] The potency of compound A in resistant tumors was increased in the presence of 5 and 20 uM of compound 1.

[3] = tested on: medulloblastoma cells derived from sensitive Ptch+/−Hic+/− medulloblastoma tumors; assay: ex-vivo medulloblastoma proliferation assay (48 h, 3H thymidine incorporation), sensitive tumors; format: cell-based; details: Mus musculus, Medulloblastoma cell
Description: as §1, §2, §3

[4] = Tumor type Resistant, single agent, 48 h, 3H thymidine, read-out: IC50, proliferation of medulloblastoma cells
[5] = Tumor type Sensitive, single agent, 48 h, 3H thymidine, read-out: IC50, proliferation of medulloblastoma cells

| Structure (SMILES) | effect on tumor growth / tumor volume [1] | time to endpoint (tumor volume>700 mm3), in words ([1]; 80 mg/kg qd Compound 1, or combination with 10 mg/kg qd Compound A, FIG. 2) | IC50 [2, 4] [nM] | IC50 ([2]; resistant tumors, read-out: IC50 in resistant tumors) [nM] | IC50 [3, 5] [nM] | IC50 ([3]; sensitive cells, read-out: IC50, inhibition of sensitive cells) [nM] | time to endpoint (tumor volume>700 mm3) ([1]; 10 mg/kg qd Compound A, FIG. 2) [days] | potency of compound A in resistant tumors ([2]; in the presence of 5 and 20 uM of compound 1) | inhibition of both sensitive and resistant tumors (comparison of IC50s) ([2]; resistant compared with sensitive tumors) |
| --- | --- | --- | --- | --- | --- | --- | --- | --- | --- |
| Cc1c(C(=O)Nc2ccc(N3C[C@@H](C)O[C@@H](C)C3)nc2)cccc1-c1ccc(OC(F)(F)F)cc1 [Compound 1, 2-Methyl-4′-trifluoromethoxy-biphenyl-3-carboxylic acid [6-(cis-2,6-dimethyl-morpholin-4-yl)-pyridin-3-yl]-amide] | initially induced regression but tumors started to regrow | significantly prolonged | 9080 | 9000 | 8 | 8 |  |  |  |
| CO[C@H]1C[C@@H]2CC[C@@H](C)[C@@](O)(O2)C(=O)C(=O)N2CCCC[C@H]2C(=O)O[C@H]([C@H](C)C[C@@H]2CC[C@@H](OCCO)[C@H](OC)C2)CC(=O)[C@H](C)/C=C(\C)[C@@H](O)[C@@H](OC)C(=O)[C@H](C)C[C@H](C)/C=C/C=C/C=C/1C [Compound A, (1R,9S,12S,15R,16E,18R,19R,21R,23S,24E,26E,28E,30S,32S,35R)-1,18-dihydroxy-12-{(1R)-2-[(1S,3R,4R)-4-(2-hydroxyethoxy)-3-methoxycyclohexyl]-1-methylethyl}-19,30-dimethoxy-15,17,21,23,29,35-hexamethyl-11,36-dioxa-4-aza-tricyclol-[30.3.1.04.9]hexatriaconta-16,24,26,28-tetraene-2,3,10,14,20-pentaone] | only a moderate effect on tumor growth compared to vehicle control |  | 2 |  | 9 |  | ~20 | increased | inhibited both sensitive and resistant tumors with similar IC50s |
